One data set addresses T1, JNK1 kinase (Homo sapiens, UniProt P45983).
T1 construct: purchased Carna Biosciences 04-163
The experiment in a line: JNK1 activity screening (time-resolved fluorometric HTRF kinase assay). The note with it: enzymatic assay, activity level. It counts as biochemical. (In TR-FRET formats the signal depends on donor and acceptor labels being close together.)

Data set [1] has as its system RAW264.7 phosphorylated c-Jun (Ser63). The experiment in a line: RAW264.7 phosphorylated c-Jun whole cell assay. The note with it: Mus musculus; cytological assay, activity level; lipopolysaccharide-activated RAW264.7 cells, phospho-c-Jun (Ser63) ELISA. The class given is cell-based. In short, it runs like this: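 Mouse RAW264.7 macrophages (2×10^5/well) were pretreated with compound for 30 min (0.2% DMSO), then stimulated with lipopolysaccharide for 1 h. Phospho-c-Jun (Ser63) in whole-cell lysates was quantified by sandwich ELISA.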
In general terms: An ELISA detects its analyte on a solid surface through an enzyme-linked reagent.

Data set [2] is described as follows: Stability observed during preparation. The class given is physicochemical. The following applies: isolated compound; acid, base, water vapor. Here is the method: (1R,3R,4R)-5-amino-2-methylcyclohexanol hydrochloride (57 mg, 0.342 mmol) and DIEA (132 mg, 1.026 mmol) were added to a solution of compound T041-3 (100 mg, 0.342 mmol) in isopropanol (3 mL) at room temperature with stirring. After stirring at room temperature for 3 h, the reaction was completed. The reaction mixture was added with water and extracted with ethyl acetate, and the organic phase was washed with saturated brine and dried over anhydrous sodium sulfate. The reaction mixture was concentrated under reduced pressure, purified by preparative high performance liquid chromatography (ammonium bicarbonate method) and lyophilized to give 40 mg of a white solid with a yield of 34%.

Bounds are passed on as bounds.

This note sets out measurements from US20230104283A1, “JNK INHIBITOR, AND PHARMACEUTICAL COMPOSITION AND USE THEREOF” (WUHAN LL SCIENCE AND TECHNOLOGY DEVELOPMENT CO. , LTD, priority 2019, published 2023).

T1 sequence (P45983 whole entry): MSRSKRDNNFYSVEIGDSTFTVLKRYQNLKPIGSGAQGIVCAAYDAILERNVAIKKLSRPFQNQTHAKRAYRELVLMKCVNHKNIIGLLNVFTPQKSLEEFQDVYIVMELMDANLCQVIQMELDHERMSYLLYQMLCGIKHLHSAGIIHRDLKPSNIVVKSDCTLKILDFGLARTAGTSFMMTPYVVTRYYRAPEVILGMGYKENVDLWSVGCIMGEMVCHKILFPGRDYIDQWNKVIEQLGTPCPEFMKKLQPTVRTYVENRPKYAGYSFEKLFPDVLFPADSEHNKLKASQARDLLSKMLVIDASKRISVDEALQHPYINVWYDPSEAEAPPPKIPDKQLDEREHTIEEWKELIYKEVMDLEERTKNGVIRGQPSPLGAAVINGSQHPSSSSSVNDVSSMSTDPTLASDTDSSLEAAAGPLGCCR

Take `C[C@@H]1CC[C@@H](Nc2nc(NC(C)(C)C)ncc2C(F)F)C[C@H]1O` [Compound T028, (1R,2R,5R)-5-((2-(tert-butylamino)-5-(difluoromethyl)pyrimidin-4-yl)amino)-2-methylcyclohex-1-ol]: the 50% inhibitory concentration (IC50) (at JNK1 kinase; in data set [1]) was > 1000 nM in each case.

As to `C[C@@H]1CC[C@@H](Nc2nc(Nn3cnnc3)ncc2C(N)=O)C[C@H]1O` [Compound T004, 2-((4H-1,2,4-triazol-4-yl)amino)-4-(((1R, 3R,4R)-3-hydroxy-4-methylcyclohexyl)amino)pyrimidine-5-carboxamide], the IC50 (on JNK1 kinase; in data set [1]) was > 1000 nM each time.

Consider `C[C@@H]1CC[C@@H](Nc2cc(NC3CCCC3)ncc2C(N)=O)C[C@H]1O` [Compound T056, 6-(cyclopentylamino)-4-(((1R,3R,4R)-3-hydroxy-4-methylcyclohexyl)amino) nicotinamide], for which the half-maximal inhibitory concentration (IC50) is 500 to 1000 nM against JNK1 kinase and > 1000 nM in data set [1].

`C[C@@H]1CC[C@@H](Nc2nc(NC(C)(C)C)ncc2C(C)(C)O)C[C@H]1O` [Compound T005, (1R,2R,5R)-5-((2-(tert-butylamino)-5-(2-hydroxypropan-2-yl)pyrimidin-4-yl)amino)-2-methylcyclohexan-1-ol]: the IC50 (against JNK1 kinase; in data set [1]) was > 1000 nM each time.

For `C[C@@H]1CC[C@@H](Nc2nc(OC(C)(C)C)ncc2Br)C[C@H]1O` [Compound T041, (1R,2R,5R)-5-((5-bromo-2-(tert-butoxy)pyrimidin-4-yl)amino)-2-methylcyclohexan-l-ol], the 50% inhibitory concentration (IC50) against JNK1 kinase is 500 to 1000 nM; in data set [1], > 1000 nM. Moreover, the “stability of the compound” value in data set [2] was “unstable due to susceptibility to acid, base, water vapor and the like”.

Consider `C[C@@H]1CC[C@@H](Nc2nc(NC(C)(C)C)ncc2C(N)=S)C[C@H]1O` [Compound T001, 2-(tert-butylamino)-4-(((1R,3R,4R)-3-hydroxy-4-methylcyclohexyl)amino) pyrimidine-5-carbothioamide], for which the IC50 on JNK1 kinase was < 100 nM; in data set [1], 100 to 500 nM.

As to `C[C@@H]1CC[C@@H](Nc2cc(NC3CCC(O)C3)ncc2C(N)=O)C[C@H]1O` (stereo partly drawn) [Compound T048, 4-(((1R,3R,4R)-3-hydroxy-4-methylcyclohexyl)amino)-6-((3-hydroxycyclopentyl)amino) nicotinamide], the figures for the half-inhibitory concentration (IC50) (at JNK1 kinase; in data set [1]) were 500 to 1000 nM and > 1000 nM, respectively.

With `Cc1cnc(NC(C)(C)C)nc1N[C@@H]1CC[C@@H](C)[C@H](O)C1` [Compound T014, (1R,2R,5R)-5-((2-(tert-butylamino)-5-methylpyrimidin-4-yl)amino)-2-methylcyclohex-1-ol], the half-maximal inhibitory concentration (IC50) (on JNK1 kinase; in data set [1]) was > 1000 nM in each case.

With `CS(=O)(=O)CCn1ccc(Nc2ccnc(N[C@H]3CC[C@H](O)CC3)n2)n1` [Compound T037, (1R,4R)-4-((4-((1-(2-(methylsulfonyl)ethyl)-1H-pyrazol-3-yl)amino)pyrimidin-2-yl)amino)cyclohexan-1-ol], the IC50 (at JNK1 kinase; in data set [1]) was > 1000 nM in each case.

As for `C=Cc1cnc(NC(C)(C)C)nc1N[C@@H]1CC[C@@H](C)[C@H](O)C1` [Compound T066, (1R,2R,5R)-5-((2-(tert-butylamino)-5-vinylpyrimidin-4-yl)amino)-2-methylcyclohex-1-ol], the IC50 (against JNK1 kinase; in data set [1]) was > 1000 nM each time.

In the case of `CC(C)(C)Nc1ncc(C(N)=O)c(NC2CCCN(C(=O)CC#N)C2)n1` (stereo not shown) [Compound T007, 2-(tert-butylamino)-4-((1-(2-cyanoacetyl)piperidin-3-yl)amino)pyrimidine-5-carboxamide], the IC50 (against JNK1 kinase; in data set [1]) was > 1000 nM each time.

In the case of `C[C@@H]1CC[C@@H](Nc2nc(NC(C)(C)C)ncc2C(=N)N)C[C@H]1O` [Compound T003, 2-(tert-butylamino)-4-(((1R,3R,4R)-3-hydroxy-4-methylcyclohexyl)amino) pyrimidine-5-carboximidamide], the half-inhibitory concentration (IC50) is 500 to 1000 nM against JNK1 kinase and > 1000 nM in data set [1].

A word on the IC50: it is the concentration that gives 50% inhibition. A low value points to greater potency.
